Assays:
EAAT2 = assay: Spinal cord organotypic culture screen for EAAT2 protein expression (slot blot); assay type: cell-based, rat; conditions: for EAAT2 expression: positive controls, after 3 days in culture
Source text: Screening Assay for EAAT2 Protein overexpression. Spinal cord organotypic cultures and astroglial cultures are used to screen for drugs capable of stimulating EAAT2 synthesis and function. Organotypic cultures offer the advantage in that they maintain the normal architecture of neuron-astroglial interactions in vitro and are derived from post natal tissue; thus may better reflect astroglial responses in vivo (rather than embryonic cells). Thus a drug that acts either on an astrocyt—or induces neurons to secrete factors that alert astrocytes—better reflects the “natural” condition of delivering a drug to a whole animal.
Organotypic Spinal Cord. Spinal cord organotypic cultures have been described by us in detail in the past. Rothstein J D et al., N. Engl. J. Med. 1992; 326:1464-1468. Briefly, 300 um sections of rat lumbar spinal cord, from postnatal day 8-10 rat pups, are placed on Millipore Millicell CM semipermeable membranes. Each well contains 5 slices (FIG. 2A). Fifty-100 cultures can be prepared weekly. Each drug (10-100 μM) was added for 3-7 days, along with cell culture medium/serum. Cultures were harvested and 5-50 μg of tissue was applied to slot blot apparatus for detection of EAAT2 by standard Western blotting/chemiluminescence methods described in the past. Kuncl R W et al., Motor neuron diseases. In: Asbury A K et al., editors. Diseases of the Nervous System. 2 ed. Philadelphia: W. B. Saunders, 1992:1179-1208; Rothstein J D et al., Neuron 1994; 13:713-725. All antipeptide antibodies were affinity purified and highly specific for transporter subtypes. By this method, increases greater than 50% of expressed protein can be detected. For each antibody slot blot, the homogenates used are expected to be within the linear range for antibody detection, based on prior standard curves.
Screening Library-Assay Design. The library of compounds for these first studies was the NINDS Custom Collection from Microsource Discovery. The library is composed of 1040 compounds in 96 well plates, that also included positive control for transporter synthesis (dibutyryl cyclic AMP [dbcAMP], GDNF). […] The library is a unique collection of known bioactive compounds that permit the simultaneous evaluation of hundreds of marketed drugs and biochemical standards. Each compound was studied at a final concentration of 10-100 μM. All assays were performed in duplicate. Every blot included control—untreated tissue and a positive control, such as those identified above.
Data Analysis. All blots were analyzed by laser densitometry (BioRad Image Quant) and the duplicate points were averaged. Each blot included a positive control standard (e.g. dbcAMP) and a negative control standard (e.g. serum, DMSO). Data was kept in Excel Spreadsheets, using a numerical/text coding system. All positive drugs (positive defined as at least a 50% increased in protein expression) were re-evaluated.

[1] = intravenous, antibiotic doses, after 0.5 hours; cited from earlier work
[2] = intravenous, pediatric bacterial meningitis, after 3-4 hours; cited from earlier work
G93A SOD1 mice = assay: In vivo neuroprotection in the G93A SOD1 mouse
Source text: Numerous studies have documented a contributory role for excess glutamate in this mouse model—and role for modulating glutamate receptors or transporters in neuroprotective strategies. Guo H., et al. Hum Mol. Genet. 2003; 12:2519-2532. Modest over expression—by a transgenic approach—can alter disease onset and/or survival.

[3] = system: cultures prepared from GLT-1 null mice; assay: Chronic motor neurodegeneration model in cultures prepared from GLT-1 null mice; assay type: cell-based; conditions: not shown
GLT1 = GLT1 expression in spinal cords of chronically treated G93A mice; assay type: in vivo
[4] = system: primary cortical mixed neuronal-glial cell cultures; assay type: cell-based
Protocol: In Vitro Model of Ischemia—Oxygen glucose deprivation (FIG. 7A) The in vitro model of oxygen glucose deprivation (OGD) is a well known and well accepted model of acute neural injury. In our in vitro model of ischemia, one hour of oxygen glucose deprivation (OGD) is lethal to cultured neurons, with toxicity known to involve excess glutamate. However, when these cultures are preconditioned 24 hours prior to the lethal condition with transient OGD (5 minutes), there is a dramatic and robust resistance of neurons to cell death.
Method. Primary cortical mixed neuronal-glial cell cultures are prepared from gestation day 14-16 CD1 mice. The preparation of these cultures from mouse fetal cortex is well-described. Experiments are performed at days in vitro 13-15. In the experimental condition, cultures are subjected to oxygen glucose deprivation (OGD), an in-vitro model of ischemia. Cortical cells are either subjected to control treatment (media, modified Earle's balanced salt solution including glucose and bubbled with 5% CO2 95% O2, is changed alongside treatment groups, but no OGD is performed), or 5 minutes (sublethal) of OGD (using modified Earle's balanced salt solution which is devoid of glucose and bubbled with 10% H2, 85% N2, and […]). Anaerobic conditions are achieved using an anaerobic chamber at 37° C. OGD is terminated by exchange of media back to oxygenated growing medium. Twenty-four hours following the above, cortical cells are subjected either to no treatment, or one hour of OGD. Neuronal survival is determined by computer-assisted cell counting after staining with the fluorescent vital dyes propidium iodide (as an indicator of neuronal death) and Hoechst 33342 (as an indicator of total number of neurons) and is presented as percent of cell death. Glial nuclei fluoresce at a lower intensity and are gated out. […] Following 1 hour OGD, cells are returned to growing medium without drugs.

[5] = system: large ventral horn motor neurons in organotypic spinal cord cultures; assay: In vitro model of chronic motor neurodegeneration (THA) in organotypic spinal cord cultures; assay type: cell-based, rat; conditions: THA 100 μM, 4 weeks, drug 0 to 100 μM, FIG. 7B
Protocol: In vitro model of chronic motor neurodegeneration (FIG. 7B). A model of chronic neurodegeneration was used, based on the blockade of glutamate transport in spinal cord organotypic cultures, with the non specific inhibitor threo-hytdroyxaspartate (THA) or TBOA. Chronic incubation of cultures with THA (or TBOA) leads to chronic increase in extra cellular glutamate and subsequent slow death of motor neurons (over 4 weeks).
To determine if drug induced GLT1 promoter activation, and the subsequent over expression of GLT1 protein could be neuroprotective, we used the organotypic spinal cord paradigm. Organotypic spinal cord cultures were prepared from lumbar spinal cords of 8-day-old rat pups, as described previously. […] No drugs were added for the first 7 days following culture preparation. THA was then added to experimental cultures at a concentration of 100 μM, which produces death of motor neurons within 3 to 4 weeks. […] After 4 weeks, cultures were fixed, and immuostained for neurofilament (SMI-32, Sternberger) to quantify large ventral horn motor neurons (a well established method to follow motor neuron survival in this system).

[6] = 200 mg/kg ip from approximately 12 weeks of age
[7] = started at 70 days of age, two weeks of therapy, vs saline

CCC(C)(C)C(=O)C(=O)N1CCC[C@H]1C(=O)OCCCc1cccnc1 [GPI-1046]
EAAT2 expression (EAAT2): large increase

CO/N=C(\C(=O)N[C@@H]1C(=O)N2C(C(=O)O)=C(CSc3nc(=O)c(=O)[nH]n3C)CS[C@H]12)c1csc(N)n1 [ceftriaxone sodium]
maximum average plasma level [1]: 82 to 257 µg/mL
maximum CSF level in inflamed meninges [2]: 1.3 to 44 µg/mL

CO/N=C(\C(=O)N[C@@H]1C(=O)N2C(C(=O)O)=C(CSc3nc(=O)c(=O)[nH]n3C)CS[C@H]12)c1csc(N)n1 [ceftriaxone]
age by which strength preservation was lost (G93A SOD1 mice; [6]): ≤ 18 weeks
persistence of strength effect (G93A SOD1 mice; [6]): 4 weeks
time after treatment at which strength effect was observed (G93A SOD1 mice; [6]): ≤ 7 days
loss of muscle strength (grip strength) (G93A SOD1 mice; 200 mg/kg ip from approximately 12 weeks of age, FIG. 7C): significantly delayed
increase of over all survival (G93A SOD1 mice; 200 mg/kg ip from approximately 12 weeks of age, FIG. 7D): 7 to 10 days
survival, earlier administration (G93A SOD1 mice; same dose started at 42 days of age): survival was also increased
hypercellular-associated gliosis and inflammation (G93A SOD1 mice; [7]): reduction
motor neuron loss in vivo (G93A SOD1 mice; [7]): significant prevention
neuroprotection in GLT-1 null cultures [3]: cannot be seen
endogenous GLT1 expression in spinal cords (GLT1): increase endogenous GLT1 expression significantly
percentage of neuronal cell death ([4]; 1 μM added 48 hours prior to 1 hour OGD, 50% without drug): 20%
neuroprotection, acute administration ([4]; acute administration, 1 hour OGD): not protective
increase of GLT1 protein and function (EAAT2; concentration used in the THA neuroprotection study): at least 3 fold
EC50 (EAAT2; follow-up dose response analysis, FIG. 2F): 3.5 µM
motor neuron loss / neuroprotection [5]: prevented motor neurons loss in a dose dependent manner

CO/N=C(\C(=O)N[C@@H]1C(=O)N2C(C(=O)O)=C(COC(N)=O)CS[C@H]12)c1ccco1 [cefuroxime]
neuroprotection, pretreatment ([4]; compared with ceftriaxone, 1 hour OGD): Comparable neuroprotection

CCCC(=O)Nc1ncnc2c1ncn2[C@@H]1O[C@@H]2COP(=O)(O)O[C@H]2[C@H]1OC(=O)CCC [dbcAMP, dibutyryl cyclic AMP]
EAAT2 expression (EAAT2): large increase

CN[C@H](CC(C)C)C(=O)N[C@H]1C(=O)N[C@@H](CC(N)=O)C(=O)N[C@H]2C(=O)N[C@H]3C(=O)N[C@H](C(=O)N[C@H](C(=O)O)c4cc(O)cc(O)c4-c4cc3ccc4O)[C@H](O)c3ccc(c(Cl)c3)Oc3cc2cc(c3O[C@@H]2O[C@H](CO)[C@@H](O)[C@H](O)[C@H]2O[C@H]2C[C@](C)(N)[C@H](O)[C@H](C)O2)Oc2ccc(cc2Cl)[C@H]1O [vancomycin]
GLT1 levels (EAAT2): did not alter

penicillin
active in increasing EAAT2 in the first screen (EAAT2; first screen, 10-100 μM): active

B1: GDNF: positive control for transporter synthesis (protein, UniProt P39905 78-211, looked up)
Glial cell line-derived …: SPDKQMAVLPRRERNRQAAAANPENSRGKGRRGQRGKNRGCVLTAIHLNVTDLGLGYETKEELIFRYCSGSCDAAETTYDKILKNLSRNRRLVSDKVGQACCRPIAFDDDLSFLDDNLVYHILRKHSAKRCGCI
EAAT2 expression (EAAT2): large increase

— patent US20070238717A1, “Neuroprotection with Beta-Lactam Compounds” (Johns Hopkins University, priority 2003, published 2007)
